Results on 23 compounds are retold here after patent US20220056043A1, “NITROGEN-CONTAINING FUSED CYCLIC COMPOUND, PREPARATION METHOD THEREFOR AND USE THEREOF” (SICHUAN KELUN-BIOTECH BIOPHARMACEUTICAL CO., LTD., priority 2019, published 2022).

Structures can show the parent of a compound that is named as a salt. Some results are limits rather than exact numbers.

For orientation: EC50 means the concentration that produces a half-maximal response. A higher EC50 goes with lower potency in that assay.

One test deals with T1, hNLRP3 inflammasome (Homo sapiens, UniProt Q96P20).
T1 construct: endogenous in cells; host or cells: THP-1 cells, PMA-differentiated
Briefly: Agonistic effect on the expression of IL-1β in THP-1 cells after PMA-induced differentiation (HTRF). It is filed as cell-based. Conditions: IL-1β level, PMA-differentiated THP-1 cells, 6 hours. From the text: Experimental Example 1: Agonistic Effect of the Compound of the Invention on the Expression of IL-1β in THP-1 Cells after PMA-Induced Differentiation
In this test, a HTRF (homogeneous time-resolved fluorescence) detection method was used to test the effect of the compound of the invention on the level of downstream cytokine IL-1β of NLRP3 to evaluate the agonistic effect of the compound on hNLRP3 inflammasome or hNLRP3 inflammasome pathway at a cellular level.
Reagent: RPMI 1640 (Hyclone); heat-inactivated FBS (fetal bovine serum) (Gibco); PMA (phorbol myristal acetate) (Beyotime)
Kit: IL-1β assay kit (CISIO)
1) THP-1 cells in a logarithmic growth phase were seeded in a T75 culture flask at a density of 5×10^5 cells/well, and cultured in a cell incubator at 37° C., 5% CO2 for 24 hours, and then 1 μM PMA was used to induce THP-1 suspension cells to become adherent macrophages. The medium was RPMI 1640 containing 10% heat-inactivated FBS and 0.05 mM β-mercaptoethanol.
2) The cells were induced and cultured for 24 hours. Then the adherent cells were trypsinized and centrifuged at 1000 rpm for 5 min. The supernatant was removed, and the cells were resuspended to a density of 2×10^6 cells/mL in RPMI 1640 medium containing 2% heat-inactivated FBS. 50 μL/well of cell resuspension was taken and spread on a 96-well plate such that the number of cells in each well was 1×10^5.
3) An appropriate amount of 10 mM DMSO solution of the compound to be tested was taken and diluted to a concentration of 2× test concentration with RPMI 1640 medium containing 2% heat-inactivated FBS. 50 μL/well of the dilution was added to the cells in the 96-well plate, and mixed well. The plate was placed in a cell incubator at 37° C., 5% CO2 for 6 hours. The supernatant was collected, and the level of IL-1β was measured in accordance with the instructions of the IL-1β detection kit.
4) EC50 was fitted by the GraphPad software log(agonist) vs. response—Variable slope four-parameter method.
On the technique in general: Time-resolved FRET reads energy transfer from a long-lived donor to a nearby acceptor.

In the next test the target is T2, hTLR7 (Homo sapiens, UniProt Q9NYK1).
T2 construct: host or cells: HEK-hTLR7-NF-κB-Luciferase cells
T2 sequence (Q9NYK1 27-1049): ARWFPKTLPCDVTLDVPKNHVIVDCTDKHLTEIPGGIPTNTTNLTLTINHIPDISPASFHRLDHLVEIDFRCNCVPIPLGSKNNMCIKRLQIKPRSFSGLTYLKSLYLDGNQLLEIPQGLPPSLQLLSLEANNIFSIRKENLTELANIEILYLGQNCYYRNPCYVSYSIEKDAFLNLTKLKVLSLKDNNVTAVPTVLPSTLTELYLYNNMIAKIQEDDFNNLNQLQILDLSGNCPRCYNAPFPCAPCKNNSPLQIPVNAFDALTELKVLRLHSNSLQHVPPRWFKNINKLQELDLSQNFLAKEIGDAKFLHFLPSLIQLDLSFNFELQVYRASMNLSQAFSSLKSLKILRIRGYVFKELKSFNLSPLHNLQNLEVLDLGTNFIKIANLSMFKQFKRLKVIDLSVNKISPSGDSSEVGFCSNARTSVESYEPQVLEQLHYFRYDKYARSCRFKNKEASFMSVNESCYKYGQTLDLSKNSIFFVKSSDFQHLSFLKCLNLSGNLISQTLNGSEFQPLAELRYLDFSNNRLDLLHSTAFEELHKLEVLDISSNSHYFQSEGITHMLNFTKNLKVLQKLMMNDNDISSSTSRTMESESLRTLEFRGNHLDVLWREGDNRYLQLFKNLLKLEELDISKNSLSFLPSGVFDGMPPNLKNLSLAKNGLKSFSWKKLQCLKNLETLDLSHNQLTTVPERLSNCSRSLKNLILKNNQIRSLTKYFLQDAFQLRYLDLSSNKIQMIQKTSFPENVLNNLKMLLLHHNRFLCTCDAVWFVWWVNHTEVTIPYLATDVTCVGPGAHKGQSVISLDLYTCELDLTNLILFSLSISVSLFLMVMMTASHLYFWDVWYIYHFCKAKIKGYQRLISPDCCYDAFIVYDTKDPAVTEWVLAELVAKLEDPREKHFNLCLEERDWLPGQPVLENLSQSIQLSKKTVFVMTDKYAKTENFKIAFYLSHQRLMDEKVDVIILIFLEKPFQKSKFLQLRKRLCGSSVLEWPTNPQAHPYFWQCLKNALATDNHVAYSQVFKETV
Description: Agonistic effect on hTLR7, HEK-hTLR7-NF-κB-Luciferase reporter cells. The class given is cell-based. Conditions: 16 hours. From the text:
Experimental Example 3: Agonistic Effect of the Compound of the Invention on hTLR7
In this test, the luciferase in HEK-hTLR7-NF-κB-reporter cells was detected to test the activating effect of the compound of the invention on TLR7 signaling pathway, so as to evaluate the specificity of the agonistic effect of the compound on NLRP3 pathway.
Reagents: DMEM (High glucose); FBS (fetal bovine serum) (Gibco); Bright-Glo™ Luciferase detection kit (Promega)
Cells: HEK-hTLR7-NF-κB-Luciferase gene cells (human TLR7 NF-κB-luciferase reporter gene cells) (Nanjing Cobioer)
1) The HEK-hTLR7-NF-κB-Luciferase cells in a logarithmic growth phase were trypsinized and resuspended in the medium to a concentration of 2×10^6 cells/mL. 50 μL/well of the cell resuspension was added to a 96-well plate such that the number of cells in each well was […]. An appropriate amount of 10 mM DMSO solution of the compound to be tested was taken and diluted to a concentration of 2× test concentration with the medium. 50 μL/well was added to the cells in the 96-well plate, and the 96-well plate was incubated in an incubator at 37° C. and 5% CO2 for 16 hours. The medium was DMEM (High glucose) containing 10% FBS.
2) After the cell incubation, 100 μL/well of Bright-Glo™ Luciferase detection reagent was added, and the mixture was incubated at room temperature for 5 minutes. Relative luciferase activity unit (RLU) was read using a microplate reader.
3) The EC50 of effect of the tested compound to stimulate hTLR7 was fitted by the GraphPad software log(agonist) vs. response—Variable slope four-parameter method.
For orientation: Reporter assays use an easily measured gene product as a stand-in for the process of interest.

T1 sequence (Q96P20 whole entry): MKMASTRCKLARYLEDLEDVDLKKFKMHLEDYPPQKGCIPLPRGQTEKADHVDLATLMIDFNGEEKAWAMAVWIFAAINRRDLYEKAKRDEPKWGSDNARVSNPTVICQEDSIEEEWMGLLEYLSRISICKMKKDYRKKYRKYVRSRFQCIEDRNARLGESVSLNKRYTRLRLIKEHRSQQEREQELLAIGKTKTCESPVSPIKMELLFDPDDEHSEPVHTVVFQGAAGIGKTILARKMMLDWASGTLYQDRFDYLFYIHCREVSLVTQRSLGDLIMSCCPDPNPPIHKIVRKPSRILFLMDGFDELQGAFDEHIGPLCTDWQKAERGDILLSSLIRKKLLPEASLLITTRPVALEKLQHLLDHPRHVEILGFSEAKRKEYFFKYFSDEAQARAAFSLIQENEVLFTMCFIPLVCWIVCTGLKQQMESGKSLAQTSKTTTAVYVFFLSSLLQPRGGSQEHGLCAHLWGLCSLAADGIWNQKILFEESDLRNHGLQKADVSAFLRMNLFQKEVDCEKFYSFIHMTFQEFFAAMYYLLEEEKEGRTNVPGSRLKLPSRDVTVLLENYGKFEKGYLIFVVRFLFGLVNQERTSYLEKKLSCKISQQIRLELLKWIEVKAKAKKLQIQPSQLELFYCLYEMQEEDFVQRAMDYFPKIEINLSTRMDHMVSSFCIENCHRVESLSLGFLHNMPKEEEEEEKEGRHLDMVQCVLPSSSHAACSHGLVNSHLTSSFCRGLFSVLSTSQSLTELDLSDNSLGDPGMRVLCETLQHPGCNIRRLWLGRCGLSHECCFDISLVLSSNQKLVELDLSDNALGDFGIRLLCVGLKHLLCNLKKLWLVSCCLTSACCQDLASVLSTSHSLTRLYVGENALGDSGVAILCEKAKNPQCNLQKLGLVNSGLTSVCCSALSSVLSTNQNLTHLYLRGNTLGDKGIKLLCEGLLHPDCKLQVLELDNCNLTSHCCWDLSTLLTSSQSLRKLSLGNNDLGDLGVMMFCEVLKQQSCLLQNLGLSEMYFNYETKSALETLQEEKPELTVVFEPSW

Regarding `Nc1cc(N[C@H]2CC[C@H](O)C2)c2sc(-c3ccn[nH]3)cc2n1` [Compound 26, (1S,3S)-3-((5-amino-2-(1H-pyrazol-5-yl)thieno[3,2-b]pyridin-7-yl)amino)cyclopentanol], the EC50 on hNLRP3 inflammasome was 0.1 µM; at hTLR7 it was > 100000 nM.
As to `Nc1cc(N[C@@H]2CC[C@@H](O)C2)c2sc(-c3ccn[nH]3)cc2n1` [Compound 30s, (1R,3R)-3-((5-amino-2-(1H-pyrazol-5-yl)thieno[3,2-b]pyridin-7-yl)amino)cyclopentanol hydrochloride], the EC50 was 0.02 µM at hNLRP3 inflammasome and > 100000 nM at hTLR7.
For `Nc1cc(N[C@@H]2CC[C@H](O)C2)c2sc(-c3ccn[nH]3)cc2n1` [Compound 31, (1S,3R)-3-((5-amino-2-(1H-pyrazol-5-yl)thieno[3,2-b]pyridin-7-yl)amino)cyclopentanol], in that order: 0.11 µM and > 100000 nM.
For `C[C@H](O)CNc1cc(N)nc2cc(-c3ccn[nH]3)sc12` [Compound 33], the EC50 at hNLRP3 inflammasome is 0.26 µM; at hTLR7, > 100000 nM.
For the compound `Nc1cc(NC2CC(O)C2)c2sc(-c3ccn[nH]3)cc2n1` (stereo not shown) [Compound 40, 3-((5-amino-2-(1H-pyrazol-5-yl)thieno[3,2-b]pyridin-7-yl)amino)cyclobutanol], the EC50 at hNLRP3 inflammasome was 0.39 µM; at hTLR7 it was > 100000 nM.
With `CN1CC[C@H](Nc2cc(N)nc3cc(-c4ccn[nH]4)sc23)C1` [Compound 51, (S)—N^7-(1-methylpyrrolidin-3-yl)-2-(1H-pyrazol-5-yl)thieno[3,2-b]pyridine-5,7-diamine], the concentration giving a half-maximal response (EC50) is 0.33 µM at hNLRP3 inflammasome and > 100000 nM on hTLR7.
In the same order, the values of `CC(=O)NCCNc1cc(N)nc2cc(-c3ccn[nH]3)sc12` [Compound 52] are 0.2 µM and > 100000 nM.
On to `CC(=O)NCCCNc1cc(N)nc2cc(-c3ccn[nH]3)sc12` [Compound 53], for which the 50% effective concentration (EC50) on hNLRP3 inflammasome is 0.18 µM; at hTLR7 it was > 100000 nM.
As to `CN1CCN(CCCNc2cc(N)nc3cc(-c4ccn[nH]4)sc23)CC1` [Compound 54, N^7-(3-(4-methylpiperazin-1-yl)propyl)-2-(1H-pyrazol-5-yl)thieno[3,2-b]pyridine-5,7-diamine], the EC50 at hNLRP3 inflammasome is 0.92 µM; on hTLR7, > 100000 nM.
`Nc1cc(NCCN2CCOCC2)c2sc(-c3ccn[nH]3)cc2n1` [Compound 55, N^7-(2-morpholinoethyl)-2-(1H-pyrazol-5-yl)thieno[3,2-b]pyridine-5,7-diamine]: the EC50 at hNLRP3 inflammasome was 0.44 µM; on hTLR7, > 100000 nM.
For `CN1CCN(CCNc2cc(N)nc3cc(-c4ccn[nH]4)sc23)CC1` [Compound 57, N^7-(2-(4-methylpiperazin-1-yl)ethyl)-2-(1H-pyrazol-5-yl)thieno[3,2-b]pyridine-5,7-diamine], the EC50 at hNLRP3 inflammasome is 0.57 µM; on hTLR7 it was > 100000 nM.
Take `Nc1cc(NCCCNC(=O)C2CC2)c2sc(-c3ccn[nH]3)cc2n1` [Compound 58]: the EC50 at hNLRP3 inflammasome is 0.26 µM; at hTLR7 it was > 100000 nM.
On to `Nc1cc(NCc2ccccn2)c2sc(-c3ccn[nH]3)cc2n1` [Compound 59, 2-(1H-pyrazol-5-yl)-N^7-(pyridin-2-ylmethyl)thieno[3,2-b]pyridine-5,7-diamine], for which the values for the EC50 on hNLRP3 inflammasome and on hTLR7 were 0.1 µM and > 100000 nM, respectively.
With `Cn1ccc(CNc2cc(N)nc3cc(-c4ccn[nH]4)sc23)n1` [Compound 60, N^7-(1-methyl-1H-pyrazol-3-yl)methyl-2-(1H-pyrazol-5-yl)thieno[3,2-b]pyridine-5,7-diamine], the figures for the EC50 on hNLRP3 inflammasome and on hTLR7 were 0.1 µM and > 100000 nM, respectively.
Take `Nc1cc(NC2CCOC2)c2sc(-c3ccn[nH]3)cc2n1` (stereo not shown) [Compound 61, 2-(1H-pyrazol-5-yl)-N^7-(tetrahydrofuran-3-yl)thieno[3,2-b]pyridine-5,7-diamine]: the EC50 at hNLRP3 inflammasome was 0.1 µM; at hTLR7, > 100000 nM.
Turning to `CC1CN(CCNc2cc(N)nc3cc(-c4ccn[nH]4)sc23)CC(C)O1` (stereo not shown) [Compound 62], the EC50 was 0.06 µM at hNLRP3 inflammasome and > 100000 nM on hTLR7.
As for `Cn1cnc(CNc2cc(N)nc3cc(-c4ccn[nH]4)sc23)c1` [Compound 63, N^7-(1-methyl-1H-imidazol-4-yl)methyl-2-(1H-pyrazol-5-yl)thieno[3,2-b]pyridine-5,7-diamine], the values for the EC50 on hNLRP3 inflammasome and at hTLR7 were 0.07 µM and > 100000 nM, respectively.
As for `Nc1cc(NCCNC(=O)C2CC2)c2sc(-c3ccn[nH]3)cc2n1` [Compound 64], the EC50 is 0.05 µM on hNLRP3 inflammasome and > 100000 nM on hTLR7.
In the same order, the values of `CC(=O)N(C)CCNc1cc(N)nc2cc(-c3ccn[nH]3)sc12` [Compound 73, N-(2-((5-amino-2-(1H-pyrazol-5-yl)thieno[3,2-b]pyridin-7-yl)amino)ethyl)-N-methylethanamide] are 0.18 µM and > 100000 nM.
As for `CC(=O)N(C)CCCNc1cc(N)nc2cc(-c3ccn[nH]3)sc12` [Compound 74, N-(3-((5-amino-2-(1H-pyrazol-5-yl)thieno[3,2-b]pyridin-7-yl)amino)propyl)-N-methylacetamide], the EC50 on hNLRP3 inflammasome is 0.26 µM; on hTLR7, > 100000 nM.
As for `CN(CCNc1cc(N)nc2cc(-c3ccn[nH]3)sc12)C(=O)C1CC1` [Compound 75, N-(2-((5-amino-2-(1H-pyrazol-5-yl)thieno[3,2-b]pyridin-7-yl)amino)ethyl)-N-methylcyclopropionamide], the EC50 at hNLRP3 inflammasome is 0.11 µM; at hTLR7, > 100000 nM.
On to `CN(CCCNc1cc(N)nc2cc(-c3ccn[nH]3)sc12)C(=O)C1CC1` [Compound 76, N-(3-((5-amino-2-(1H-pyrazol-5-yl)thieno[3,2-b]pyridin-7-yl)amino)propyl)-N-methylcyclopropane formamide], for which the results for the 50% effective concentration (EC50) on hNLRP3 inflammasome and at hTLR7 were 0.27 µM and > 100000 nM, respectively.
For `CCC(=O)N(C)CCNc1cc(N)nc2cc(-c3ccn[nH]3)sc12` [Compound 88, N-(2-((5-amino-2-(1H-pyrazol-5-yl)thieno[3,2-b]pyridin-7-yl)amino)ethyl)-N-methylpropionamide], the concentration giving a half-maximal response (EC50) is 0.04 µM on hNLRP3 inflammasome and > 100000 nM at hTLR7.
